Source: patent US20230059136A1, “THE COMPOUNDS AND COMPOSITIONS FOR TREATING CONDITIONS ASSOCIATED WITH NLRP ACTIVITY” (Novartis AG, priority 2018, published 2023)

test system: IL-1β production in PMA-differentiated THP-1 cells; assay: IL-1β production in PMA-differentiated THP-1 cells stimulated with gramicidin (hTHP-1 assay containing 2% fetal bovine serum); assay type: cell-based, human; details: Homo sapiens, THP-1, Table B1; 2% fetal bovine serum; cells printed as numeric bound; read-out: hTHP-1 IC50 (Average IC50 of compounds in hTHP-1 assay)
In short: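 IL-1β release was read by HTRF on supernatants of 50,000 PMA-primed (20 ng/ml, 16-18 h) THP-1 cells/well in 2% FBS medium. Cells saw compound for 1 h (11-point titration from 100 μM, 0.37% DMSO) before a 2 h gramicidin (5 μM) challenge.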

IC50 [µM] | Compound
> 30 | CC(C)c1cc(CCC2CCOCC2)cc(C(C)C)c1CC(=O)N=[S@](N)(=O)c1cc(C(C)(C)O)n(-c2ccccc2)n1 (single isomer, unassigned) [Example 235, (S) or (R)-N-(amino(5-(2-hydroxypropan-2-yl)-1-phenyl-1H-pyrazol-3-yl)(oxo)-λ^6-2-(2,6-diisopropyl-4-(2-(tetrahydro-2H-pyran-4-yl)ethyl)phenyl)acetamide]
> 30 | NS(=O)(=NC(=O)Cc1c2c(cc3c1CCC3)CCC2)c1cnn2c1OCCC2 (single isomer, unassigned) [Example 269, (R) or (S)-N-(amino(6,7-dihydro-5H-pyrazolo[5,1-b][1,3]oxazin-3-yl)(oxo)-λ^6-sulfaneylidene)-2-(1,2,3,5,6,7-hexahydro-s-indacen-4-yl)acetamide]
> 30 | COCc1cc(C(C)C)c(CC(=O)N=S(N)(=O)c2ncc(C(C)(C)O)s2)c(C(C)C)n1 (single isomer, unassigned) [Example 273, (S) or (R)-N-(amino (5-(2-hydroxypropan-2-yl)thiazol-2-yl)(oxo)-λ^6-sulfaneylidene)-2-(2,4-diisopropyl-6-(methoxymethyl)pyridin-3-yl)acetamide]
> 30 | CC(C)c1cc(C#CC2CCOCC2)cc(C(C)C)c1CC(=O)N=S(N)(=O)c1cc(C(C)(C)O)n(-c2ccccc2)n1 (single isomer, unassigned) [Example 278, (S) or (R)-N-(amino(5-(2-hydroxypropan-2-yl)-1-phenyl-1H-pyrazol-3-yl)(oxo)-λ^6-sulfaneylidene)-2-(2,6-diisopropyl-4-((tetrahydro-2H-pyran-4-yl)ethynyl)phenyl)acetamide]
> 30 | CC(C)c1cc(C#CC2CCCCC2)cc(C(C)C)c1CC(=O)N=S(N)(=O)c1cc(C(C)(C)O)n(-c2ccccc2)n1 (single isomer, unassigned) [Example 280, (S) or (R)-N-(amino (5-(2-hydroxypropan-2-yl)-1-phenyl-1H-pyrazol-3-yl)(oxo)-λ^6-sulfaneylidene)-2-(4-(cyclohexylethynyl)-2,6-diisopropylphenyl) acetamide]

same assay, conditions: Homo sapiens, THP-1, Table B1; 2% fetal bovine serum; class symbols; read-out: hTHP-1 IC50 (Average IC50 of compounds in hTHP-1 assay)

IC50 [µM] | Compound
5 to 30 | CC(C)c1cc(CCC2CCOCC2)cc(C(C)C)c1CC(=O)N=S(N)(=O)c1cc(C(C)(C)O)n(-c2ccccc2)n1 (single isomer, unassigned) [Example 234, (R) or (S)—N-(amino(5-(2-hydroxypropan-2-yl)-1-phenyl-1H-pyrazol-3-yl)(oxo)-λ^6-sulfaneylidene)-2-(2,6-diisopropyl-4-(2-(tetrahydro-2H-pyran-4-yl)ethyl)phenyl)acetamide]
5 to 30 | NS(=O)(=NC(=O)Cc1c2c(cc3c1CCC3)CCC2)c1cnn2c1OCCC2 (single isomer, unassigned) [Example 270, (S) or (R)-N-(amino(6,7-dihydro-5H-pyrazolo[5,1-b][1,3]oxazin-3-yl)(oxo)-λ^6-sulfaneylidene)-2-(1,2,3,5,6,7-hexahydro-s-indacen-4-yl)acetamide]
1 to 5 | COCc1cc(C(C)C)c(CC(=O)N=S(N)(=O)c2ncc(C(C)(C)O)s2)c(C(C)C)n1 (single isomer, unassigned) [Example 274, (R) or (S)-N-(amino (5-(2-hydroxypropan-2-yl)thiazol-2-yl)(oxo)-λ^6-sulfaneylidene)-2-(2,4-diisopropyl-6-(methoxymethyl)pyridin-3-yl)acetamide]
0.2 to 1 | CC(C)c1cc(C#CC2CCOCC2)cc(C(C)C)c1CC(=O)N=S(N)(=O)c1cc(C(C)(C)O)n(-c2ccccc2)n1 (single isomer, unassigned) [Example 277, (R) or (S)-N-(amino (5-(2-hydroxypropan-2-yl)-1-phenyl-1H-pyrazol-3-yl)(oxo-λ^6-sulfaneylidene)-2-(2,6-diisopropyl-4-((tetrahydro-2H-pyran-4-yl)ethynyl)phenyl)acetamide]
1 to 5 | CC(C)c1cc(C#CC2CCCCC2)cc(C(C)C)c1CC(=O)N=S(N)(=O)c1cc(C(C)(C)O)n(-c2ccccc2)n1 (single isomer, unassigned) [Example 279, (R) or (S)-N-(amino(5-(2-hydroxypropan-2-yl)-1-phenyl-1H-pyrazol-3-yl)(oxo)-λ^6-sulfaneylidene)-2-(4-(cyclohexylethynyl)-2,6-diisopropylphenyl) acetamide]
5 to 30 | CC(C)c1cc(CCC2CCCCC2)cc(C(C)C)c1CC(=O)N=S(N)(=O)c1cc(C(C)(C)O)n(-c2ccccc2)n1 (single isomer, unassigned) [Example 281, (R) or (S)-N-(amino(5-(2-hydroxypropan-2-yl)-1-phenyl-1H-pyrazol-3-yl)(oxo)-λ^6-sulfaneylidene)-2-(4-(2-cyclohexylethyl)-2,6-diisopropylphenyl) acetamide]

same assay, conditions: Table B1; 2% fetal bovine serum; class symbols; read-out: hTHP-1 IC50 (Average IC50 of compounds in hTHP-1 assay)

IC50 [µM] | Compound
0.2 to 1 | CC(C)c1cc2c(c(C(C)C)c1CC(=O)N=S(N)(=O)c1cc(C(C)(C)O)cs1)COC2 (single isomer, unassigned) [Example 216, (R) or (S)-N-(amino (4-(2-hydroxypropan-2-yl)thiophen-2-yl)(oxo)-λ^6-sulfaneylidene)-2-(4,6-diisopropyl-1,3-dihydroiso-benzofuran-5-yl)acetamide]
5 to 30 | CC(C)c1cc2c(c(C(C)C)c1CC(=O)N=S(N)(=O)c1cc(C(C)(C)O)cs1)COC2 (single isomer, unassigned) [Example 217, (S) or (R)-N-(amino (4-(2-hydroxypropan-2-yl)thiophen-2-yl)(oxo)-λ^6-sulfaneylidene)-2-(4,6-diisopropyl-1,3-dihydro-isobenzofuran-5-yl)acetamide]
0.2 to 1 | CC(C)c1cc(-c2ccc3c(c2)CCOC3)cc(C(C)C)c1CC(=O)N=S(N)(=O)c1sc(C(C)(C)O)nc1CO (single isomer, unassigned) [Example 271, (R) or (S)-N-(amino(4-(hydroxymethyl)-2-(2-hydroxypropan-2-yl)thiazol-5-yl)(oxo)-λ^6-sulfaneylidene)-2-(4-(isochroman-6-yl)-2,6-diisopropylphenyl) acetamide]
5 to 30 | CC(C)c1cc(-c2ccc3c(c2)CCOC3)cc(C(C)C)c1CC(=O)N=S(N)(=O)c1sc(C(C)(C)O)nc1CO (single isomer, unassigned) [Example 272, (S) or (R)-N-(amino(4-(hydroxymethyl)-2-(2-hydroxypropan-2-yl)thiazol-5-yl)(oxo)-λ^6-sulfaneylidene)-2-(4-(isochroman-6-yl)-2,6-diisopropylphenyl) acetamide]
0.2 to 1 | CC(C)c1cc(C#N)c(F)c(C(C)C)c1CC(=O)N=S(N)(=O)c1cc(C(C)(C)O)n(-c2ccccc2)n1 (single isomer, unassigned) [Example 275, (R) or (S)-N-(amino (5-(2-hydroxypropan-2-yl)-1-phenyl-1H-pyrazol-3-yl)(oxo)-λ^6-sulfaneylidene)-2-(4-cyano-3-fluoro-2,6-diisopropylphenyl) acetamide]
5 to 30 | CC(C)c1cc(C#N)c(F)c(C(C)C)c1CC(=O)N=S(N)(=O)c1cc(C(C)(C)O)n(-c2ccccc2)n1 (single isomer, unassigned) [Example 276, (S) or (R)-N-(amino (5-(2-hydroxypropan-2-yl)-1-phenyl-1H-pyrazol-3-yl)(oxo)-λ^6-sulfaneylidene)-2-(4-cyano-3-fluoro-2,6-diisopropylphenyl) acetamide]
